From ChEMBL document CHEMBL3045250 (Med Chem Res, 2005) come the findings set out here.

Test [1] deals with T1, 5-hydroxytryptamine receptor 6 (Homo sapiens, UniProt P50406). Put plainly: Displacement of [3H]LSD from Homo sapiens (human) 5-HT6 receptor expressed in Homo sapiens (human) HEK293 cells. It is filed as cell-based.
For test [2], the target named is T1, 5-hydroxytryptamine receptor 6. Put plainly: Binding affinity to 5-HT6 receptor (unknown origin).

T1 sequence (P50406 whole entry): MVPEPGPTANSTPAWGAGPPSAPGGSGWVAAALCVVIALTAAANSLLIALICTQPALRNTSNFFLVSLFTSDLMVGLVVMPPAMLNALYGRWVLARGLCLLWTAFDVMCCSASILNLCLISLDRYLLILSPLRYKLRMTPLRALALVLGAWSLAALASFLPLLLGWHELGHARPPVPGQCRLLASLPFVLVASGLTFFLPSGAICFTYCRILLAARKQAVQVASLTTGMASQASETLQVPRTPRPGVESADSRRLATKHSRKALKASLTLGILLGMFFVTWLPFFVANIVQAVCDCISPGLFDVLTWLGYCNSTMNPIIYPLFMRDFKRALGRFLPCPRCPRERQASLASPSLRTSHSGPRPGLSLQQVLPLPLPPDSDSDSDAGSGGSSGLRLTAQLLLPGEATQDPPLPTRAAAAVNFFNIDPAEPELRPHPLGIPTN

With `CN(C)CCc1c[nH]c2ccncc12`, in test [1], the Ki (in general, the dissociation constant of the complex between target and ligand, obtained from inhibition or displacement) came to 100 nM.
The compound `CN(C)CCc1cn(S(=O)(=O)c2ccccc2)c2ccncc12` had a Ki in test [1] of 84 nM.
Consider `Cc1cn(S(=O)(=O)c2ccc(N)cc2)c2ccncc12`, for which the Ki in test [1] was 41 nM.
`NCCc1c(-c2ccccc2)[nH]c2ccncc12` came in with a Ki in test [1] of 2600 nM.
For `CN(C)CCc1c(-c2ccccc2)[nH]c2ccncc12`, the affinity in test [1] corresponds to a Ki of 270 nM.
The compound `CCc1[nH]c2ccncc2c1CCN` gave a Ki in test [1] of 4900 nM.
For the compound `CCc1[nH]c2ccncc2c1CCN(C)C`, the Ki in test [1] is 2900 nM.
Consider `CNc1cc(NS(=O)(=O)c2ccc(N)cc2)nc(NC)n1`, for which affinity in test [2] was put at a Ki of 58 nM.
In test [1], `NCCc1c[nH]c2ccncc12` [5-Azatryptamine] yielded a Ki of 64 nM.
